ChEMBL document CHEMBL1146571, “Mycalosides B-I, eight new spermostatic steroid oligoglycosides from the sponge Mycale laxissima” (J Nat Prod, 2003)
In brackets after ≈: the same amount, converted by molar mass.

Experiment: Spermatostatic activity against Strongylocentrotus nudus sperm assessed as inhibition of egg fertilization preincubated 15 mins before artificial insemination
Assay type: functional, cell-based, Mesocentrotus nudus

| Structure (SMILES) | EC50 [µg/mL] |
| --- | --- |
| CC(C)[C@H](C)/C=C/[C@@H](CO)[C@H]1C[C@H](O)[C@H]2[C@@H]3CC=C4[C@@H](O)[C@@H](O[C@@H]5O[C@H](CO)[C@@H](O[C@@H]6O[C@H](CO)[C@H](O)[C@H](O)[C@H]6O)[C@H](O[C@@H]6OC[C@@H](O)[C@@H](O)[C@@H]6O[C@H]6O[C@H](CO)[C@H](O)[C@H](O)[C@H]6O)[C@H]5O)CC[C@]4(C)[C@H]3CC[C@@]21C [MYCALOSIDE A] | 3.2 (≈ 3 µM) |
| CC(C)CCC[C@@H](CO)[C@H]1CC(=O)[C@H]2[C@@H]3CC=C4[C@@H](O)[C@@H](O[C@@H]5O[C@H](CO)[C@@H](O[C@@H]6O[C@H](CO)[C@H](O)[C@H](O)[C@H]6O)[C@H](O[C@@H]6OC[C@@H](O)[C@@H](O)[C@@H]6O[C@H]6O[C@H](CO)[C@H](O)[C@H](O)[C@H]6O)[C@H]5O)CC[C@]4(C)[C@H]3CC[C@]12C [MYCALOSIDE G] | 3.2 (≈ 3.04 µM) |
